The results in this text go back to patent US10524472B2, “Elicitor peptides having disrupted hypersensitive response box and use thereof” (Plant Health Care, Inc., priority 2014, dated 2020).

What all share (type): in vivo
For one experiment, the system named is soybean seeds. Description: Root & shoot growth analysis after seed soak, soy. The conditions noted are these: for root growth (text summary of Table 20) / shoot growth (Table 20): seed soak; for Root (root growth index, percentage increase over untreated control) / Shoot (shoot length, percentage increase over untreated control): soy, 12-14 days; for shoot growth (Table 20): p14a soy at 0.2 μg/ml. As for the experimental part: Peptides were tested for biological effects on the allocation of growth resources to the shoot (above ground) and root (below ground). Peptides were dissolved at 0.2, 2, or 5 μg/ml in a total volume of 100 ml deionized water. Corn or soybean seeds were then soaked for one hour in the peptide solution. Untreated control (UTC) plants were soaked in deionized water. Clear plastic 300 ml beverage cups (Solo®, Dart Container Corporation) were prepared for planting by marking the bottom with a cross, dividing the bottom into four equal quadrants. The cups were then filled with Sunshine Mix #1 soil (SunGro Horticulture) sieved to ¼″. 100 ml of water was added to the soil. Treated seeds were then planted by pressing the seed lightly into the top of the soil. The seeds were then covered with an additional 50 ml of loose soil. Seeds were allowed to germinate and grow for 12-14 days.
The length of the shoot was measured as the distance from the soil to the lightly stretched tip of the highest leaf for each plant. […] Stunting was defined as lacking a fully expanded true leaf at time of data collection or having an expanded true leaf judged by eye to be <½ the average leaf area of the treatment group. Generally, 30 seeds were planted per treatment group and 15-25 plants were used for data collection.
Root growth was estimated by counting the number of times that a primary root crosses the quadrant marks on the bottom of the cup. These were often observed along the bottom circumference of the cup, although some were visible along the side of the container and were counted as if crossing a vertical extension of the quadrant line. This number was divided by 4 to produce a root growth index.
Each number indicates the percentage increase over the untreated control values.

Experiment [1] deals with tobacco mosaic virus (TMV). In words: Induction of resistance to tobacco mosaic virus in tobacco. The conditions noted are these: for Effectiveness Covered (%) (decline in TMV lesions vs UTC, systemic response) / Effectiveness Uncovered (%) (decline in TMV lesions vs UTC, local response): TMV 3 days post-treatment, scored 3 days after inoculation; for TMV response / effectiveness against TMV infection (summary of Table 22): foliar spray; for efficacy on covered leaves, systemic immune response: covered leaf.

Another experiment has as its system Soy plants. Description: Growth tests after foliar spray, soy. The following applies: for growth, dry biomass and fresh mass (text summary of Table 21): foliar spray; for Dry biomass increase (%) / Fresh mass increase (%) / Growth increase (%): soy, 14 days. As for the experimental part:
Soy seeds (or corn seeds, as indicated) were planted in flats with 2 seeds per cell within the flat at a greenhouse facility. The seeds were allowed to germinate and the smaller plant is culled, leaving one plant per cell. Once the first true leaves are fully expanded and the second leaves are beginning to expand, the plants were initially measured for height. This was performed by stretching the highest leaf upward and measuring the distance to the soil. Peptides were dissolved in water at the indicated concentrations (Table 21 below). The plants were then treated with a foliar spray using widely available spray bottles until liquid was dripping from the leaves. Six flats of 14 plants each were treated per condition (peptide or control). Designated untreated control plants were sprayed with water. The plants were allowed to grow for 14 days. The height of the plants was again measured and compared to the original height to quantify growth. Finally, the plants were harvested by removing the shoots (all above-ground material). For some experiments, this was weighed upon harvesting to determine the fresh mass (including water weight). The shoots were then dried at 70° C. for 72 hours, and again weighed to determine dry biomass. Although this method uses a similar measure (growth) as in Example 3 above, the treatment method is different (seed soak vs. foliar spray). As a result, the experimental outcomes may diverge.

Marks after values point to notes of the source that are not given here.

SQGISEKQLDQLLSQSIQALLQP (P4-14S-16S): the “root growth (text summary of Table 20)” value with soybean seeds (listed as P4-14s-16s) is “strong shift in resource allocation to root growth”. For the same sequence, the “root growth (text summary of Table 20)” value with soybean seeds (listed as p4-14s-16s) is reported as “Increased root growth”. In addition, in the experiment with soybean seeds (seed soak 0.2 μg/ml), the “Root (root growth index, percentage increase over untreated control)” value amounted to 28.3% and the “Shoot (shoot length, percentage increase over untreated control)” value is given as −2.0%. Besides, in the experiment on soybean seeds (seed soak 2.0 μg/ml), the “Root (root growth index, percentage increase over untreated control)” value is reported as 28.3%* and the “Shoot (shoot length, percentage increase over untreated control)” value is recorded as −11.3%. For the same sequence, in experiment [1] (spray 10 ug/ml), the “Effectiveness Covered (%) (decline in TMV lesions vs UTC, systemic response)” value (from here on “Effectiveness Covered (%)”) is reported as 46% and the “Effectiveness Uncovered (%) (decline in TMV lesions vs UTC, local response)” value (“Effectiveness Uncovered (%)” below) was 72* %.

Take QAGPQSANKTGNVDDANNQDPMQALMQLL (P14-dc4): in the experiment on Soy plants, the “growth, dry biomass and fresh mass (text summary of Table 21)” value (“growth, dry biomass and fresh mass” for short) is “lose the significant growth, dry biomass, and fresh mass benefits”. In the experiment on Soy plants (foliar spray 0.2 ug/ml), the “Dry biomass increase (%)” value came out at 5.6%, the “Fresh mass increase (%)” value turned out to be 7.5% and the “Growth increase (%)” value was 2.6%. In the experiment on Soy plants (foliar spray 2.0 ug/ml), the “Dry biomass increase (%)” value was −1.6%, the “Fresh mass increase (%)” value came out at 0.4% and the “Growth increase (%)” value is on record as −4.6%. Besides, in the experiment on Soy plants (foliar spray 5.0 ug/ml), the “Dry biomass increase (%)” value is on record as −7.6%, the “Fresh mass increase (%)” value was −15.4% and the “Growth increase (%)” value is listed as −17%. Also, the “TMV response / effectiveness against TMV infection (summary of Table 22)” value (“TMV response / effectiveness” for short) in experiment [1] was “reduced effectiveness against TMV infection”. In experiment [1] (spray 10 ug/ml), the “Effectiveness Covered (%)” value is on record as 19% and the “Effectiveness Uncovered (%)” value came out at 34%.

With SQGISEKQLDQLLSQLIQASLQP (P4-14S-20S), the “shoot growth (Table 20)” value in the experiment with soybean seeds is “increased shoot growth”. In addition, in the experiment with soybean seeds (seed soak 5.0 μg/ml), the “Root (root growth index, percentage increase over untreated control)” value turned out to be 2.2% and the “Shoot (shoot length, percentage increase over untreated control)” value is reported as 5.8%*. Further, the “TMV response / effectiveness” value in experiment [1] is given as “weaker TMV responses”. Also, in experiment [1] (spray 10 ug/ml), the “Effectiveness Covered (%)” value is −45% and the “Effectiveness Uncovered (%)” value is given as 59* %.

Take SQGISEKQLDQDLSQLIQALLQP (P4-14S-12D): in the experiment with Soy plants (foliar spray 5.0 ug/ml), the “Dry biomass increase (%)” value is listed as −3.6% and the “Growth increase (%)” value is reported as −4.2%. Also, the “TMV response / effectiveness” value in experiment [1] was “produced the best results”. In addition, in experiment [1] (spray 5.0 ug/ml), the “Effectiveness Covered (%)” value is listed as 60* % and the “Effectiveness Uncovered (%)” value was 61* %.

On to KPNDSQSNIAKLISALI (P15-62), for which, in experiment [1] (spray 20 ug/ml), the “Effectiveness Covered (%)” value was −122% and the “Effectiveness Uncovered (%)” value was 94* %.

In the case of SEEEEELKALLKSIARLL (P19min-13S), the “TMV response / effectiveness” value in experiment [1] is given as “poor immune activation”. In addition, the “TMV response / effectiveness” value in experiment [1] (listed as P19 min-135) is reported as “weaker TMV responses”. In experiment [1] (spray 20 ug/ml), the “Effectiveness Covered (%)” value is given as −70% and the “Effectiveness Uncovered (%)” value was found to be 35%.

With SEEEEELEQLLEDLVKLL (P14-32), in the experiment on Soy plants, the “growth, dry biomass and fresh mass” value is “increases in growth and dry biomass”. Besides, in the experiment on Soy plants (foliar spray 0.2 ug/ml), the “Dry biomass increase (%)” value worked out at 6.8%, the “Fresh mass increase (%)” value came out at 2.9% and the “Growth increase (%)” value is given as 9.5%. For the same sequence, in the experiment with Soy plants (foliar spray 2.0 ug/ml), the “Dry biomass increase (%)” value was 8.2%, the “Fresh mass increase (%)” value was 27.6% and the “Growth increase (%)” value came out at 1.7%. Besides, in the experiment on Soy plants (foliar spray 5.0 ug/ml), the “Dry biomass increase (%)” value was found to be 14%, the “Fresh mass increase (%)” value turned out to be 33.3% and the “Growth increase (%)” value amounted to 12.5%. Moreover, in experiment [1] (spray 20 ug/ml), the “Effectiveness Covered (%)” value is on record as 82* % and the “Effectiveness Uncovered (%)” value is given as 90* %.

On to PSPFTQMLMHSVGEILQAQN (P6a-11S), for which, in experiment [1] (spray 20 ug/ml), the “Effectiveness Covered (%)” value is listed as 88* % and the “Effectiveness Uncovered (%)” value is given as 71* %.

Turning to ANNQDPMQALMQLLEDLV (P14a), in the experiment with soybean seeds, the “root growth (text summary of Table 20)” value is on record as “Increased root growth” and the “shoot growth (Table 20)” value was “increased shoot growth”. Further, in the experiment on soybean seeds (seed soak 0.2 μg/ml), the “Root (root growth index, percentage increase over untreated control)” value is given as −2.7% and the “Shoot (shoot length, percentage increase over untreated control)” value was determined as 8.7%*. In addition, in the experiment on soybean seeds (seed soak 5.0 μg/ml), the “Root (root growth index, percentage increase over untreated control)” value stood at 10.3%* and the “Shoot (shoot length, percentage increase over untreated control)” value is −3.5%. Besides, the “growth, dry biomass and fresh mass” value with Soy plants is “increases for all 3 measures”. For the same sequence, the “growth, dry biomass and fresh mass” value in the experiment with Soy plants (listed as p14a) is “increases in growth and dry biomass”. For the same sequence, in the experiment on Soy plants (foliar spray 0.2 ug/ml), the “Dry biomass increase (%)” value turned out to be 12.6%, the “Fresh mass increase (%)” value was determined as 46.8% and the “Growth increase (%)” value was determined as 14.7%. In the experiment with Soy plants (foliar spray 2.0 ug/ml), the “Dry biomass increase (%)” value was 11.0%, the “Fresh mass increase (%)” value is listed as 57.9% and the “Growth increase (%)” value amounted to 3.4%. In the experiment on Soy plants (foliar spray 5.0 ug/ml), the “Dry biomass increase (%)” value is recorded as 10.6%, the “Fresh mass increase (%)” value stood at 83.3% and the “Growth increase (%)” value worked out at 8.9%.

On to QDPMQALMQLLEDLVKDLK (P14d-17D), for which, in experiment [1] (spray 20 ug/ml), the “Effectiveness Covered (%)” value is reported as 65* % and the “Effectiveness Uncovered (%)” value was 68* %.

In the case of SEEEEEDAQLLAQLLKSLL (P18min-7D), in experiment [1], the “efficacy on covered leaves, systemic immune response” value was “reduced efficacy on covered leaves” and the “TMV response / effectiveness” value is given as “weaker TMV responses”. Besides, in experiment [1] (spray 20 ug/ml), the “Effectiveness Covered (%)” value is 29% and the “Effectiveness Uncovered (%)” value came to 26%.

Take “QAGPQSANKTGNVDDANNQDPAQALAQLLEDLV (P14-22A,26A)”: in experiment [1] (spray 10 ug/ml), the “Effectiveness Covered (%)” value is on record as 93* % and the “Effectiveness Uncovered (%)” value was 92* %.

In the case of SEEEEELQQLLKLFSEILQ (P3-10), in experiment [1] (spray 20 ug/ml), the “Effectiveness Covered (%)” value is reported as 95* % and the “Effectiveness Uncovered (%)” value was 94* %.

As to SEEEEELTGVLQKLSKILEAL (P25min-15S), in experiment [1] (spray 20 ug/ml), the “Effectiveness Covered (%)” value was 74* % and the “Effectiveness Uncovered (%)” value is on record as 81* %.

On to SEEEEEEIAKLISALI (P15-63), for which, in experiment [1] (spray 20 ug/ml), the “Effectiveness Covered (%)” value was 74* % and the “Effectiveness Uncovered (%)” value was 90* %.

GGLTLTGVDQKLMKILNALVQ (P25-9D): the “efficacy on covered leaves, systemic immune response” value in experiment [1] is given as “reduced efficacy on covered leaves”. In experiment [1] (spray 20 ug/ml), the “Effectiveness Covered (%)” value came to 55% and the “Effectiveness Uncovered (%)” value is 78* %.

For the sequence “QAGPQSANKTGNVDDANNQDPLQALLQLLEDAA (P14-22L,32-33A)”, in experiment [1] (spray 10 ug/ml), the “Effectiveness Covered (%)” value was 69* % and the “Effectiveness Uncovered (%)” value is on record as 91* %.

Regarding SEEEEELLQLLEDLV (P14-41), in experiment [1] (spray 20 ug/ml), the “Effectiveness Covered (%)” value was 61* % and the “Effectiveness Uncovered (%)” value is listed as 86* %.
